Each structure is given as a SMILES string.

This experiment addresses T1, TXA2 receptors of human platelets (Homo sapiens, UniProt P21731).
T1 construct: Human platelets incubate in the presence of a single concentration; endogenous in cells; host or cells: human platelets
T1 sequence (P21731 1-343): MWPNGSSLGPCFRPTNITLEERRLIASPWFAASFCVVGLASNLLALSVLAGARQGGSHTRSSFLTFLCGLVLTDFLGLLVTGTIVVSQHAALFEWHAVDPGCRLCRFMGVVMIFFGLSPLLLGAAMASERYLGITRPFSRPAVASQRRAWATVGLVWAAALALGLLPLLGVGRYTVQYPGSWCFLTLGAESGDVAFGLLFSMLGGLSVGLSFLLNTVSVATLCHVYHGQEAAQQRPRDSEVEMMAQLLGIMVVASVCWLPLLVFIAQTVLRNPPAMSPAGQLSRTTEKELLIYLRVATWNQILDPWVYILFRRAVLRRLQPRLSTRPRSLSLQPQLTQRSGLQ
The experiment is described as follows: displacement of radioligand [^125 I]PTA-OH specifically bound to the TXA2 receptors of human platelets. The experiment is classed as binding. As to conditions: for inhibition at 10 µM / inhibition at 0.1 µM: 0.5 h, 30 minutes at 37° C; for inhibition at 10 µM: 1E-5 M competing agent, read-out: % displacement, Concentration 1E-5 M; for inhibition at 0.1 µM: 1E-7 M competing agent, read-out: % displacement, Concentration 1E-7 M; for Ki: determined according to the formula of CHENG and PRUSOFF, read-out: Ki (inhibition constant). Here is the method: The affinity of the products of the Examples described for thromboxane A2 receptors is evaluated by the technique of displacing a radioligand specifically bound to the TXA2 receptors of human platelets. […] The reaction is completed by the addition of a buffer, followed by rapid filtration through […] filters. […] The results are expressed, for the doses tested, as the percentage displacement of the radioligand specifically bound to the TXA2 receptors of human platelets.

Broadly, the Ki is a measure of affinity in units of concentration, obtained from inhibition or displacement. As for `O=C(O)[C@@H]1CC[C@H]1c1nc2cc(F)ccc2n1Cc1ccc(Cl)cc1` (relative stereo) [Example 90, Trans-2-[1 (4-chlorobenzyl)-5-fluorobenzimidazol-2-yl]cyclobutane-1 carboxylic acid], the inhibition at 10 µM was found to be 97%, the inhibition at 0.1 µM stood at 2% and the Ki stood at 1180 nM.
As to `O=C(O)[C@@H]1CCC[C@H]1c1nc2cc(F)ccc2n1Cc1ccc(Cl)cc1` (relative stereo) [Example 153, Trans 2-[1-(4-chlorobenzyl)-5-fluorobenzimidazol-2-yl]cyclopentane-1-carboxylic acid], the inhibition at 10 µM was 100% and the inhibition at 0.1 µM turned out to be 37%.
`O=C(O)[C@@H]1CC=CC[C@@H]1c1nc2cc(F)ccc2n1Cc1ccc(Cl)cc1` (relative stereo) [Example 161, Cis-5-[1-(4-chlorobenzyl)-5-fluorobenzimidazol-2-yl]cyclohexene-4-carboxylic acid]: the inhibition at 10 µM came out at 96% and the inhibition at 0.1 µM stood at 15%.
The corresponding values for `CC(C)(CC(=O)O)Cc1nc2ccccc2n1Cc1ccccc1` [Example 58, 4-(1 Benzylbenzimidazol-2-yl)-3,3-dimethylbutanoic acid] are 95% and 13%.
Regarding `O=C(O)CCCCSc1nc2cc(F)ccc2n1Cc1ccc(Cl)cc1` [Example 59, 5-[1-(4-Chlorobenzyl)-5-fluorobenzimidazol-2-yl]mercaptopentanoic acid], the inhibition at 10 µM is 100% and the inhibition at 0.1 µM is 28%.
As for `O=C(O)CCCSc1nc2ccccc2n1Cc1ccc(Cl)cc1` [Example 63, 4-[1-(4-Chlorobenzyl)benzimidazol-2-yl]mercaptobutanoic acid], the inhibition at 10 µM was 97% and the inhibition at 0.1 µM was 37%.
Taken in the same sequence, the figures for `O=C(O)CCCSc1nc2ccccc2n1Cc1ccc(Cl)cc1Cl` [Example 64, 4-[1 (2,4-Dichlorobenzyl)benzimidazol-2-yl]mercaptobutanoic acid] were 97% and 34%.
Taken in the same sequence, the figures for `O=C(O)CCCSc1nc2cc(F)ccc2n1Cc1ccc(Cl)cc1` [Example 65, 4-[1-(4-Chlorobenzyl)-5 fluorobenzimidazol-2-yl]mercaptobutanoic acid] were 93% and 8%.
The corresponding values for `Cc1ccc(Cn2c(CC(C)(C)CC(=O)O)nc3ccccc32)cc1` [Example 66, 4-[1-(4-Methylbenzyl)benzimidazol-2-yl]-3,3-dimethylbutanoic acid] are 100% and 52%.
Regarding `CC(C)(CC(=O)O)Cc1nc2ccccc2n1Cc1ccc(F)cc1` [Example 67], the inhibition at 10 µM came to 100% and the inhibition at 0.1 µM was 66%.
With `COc1ccc(Cn2c(CC(C)(C)CC(=O)O)nc3ccccc32)cc1` [Example 68, 4-[1-(4-Methoxybenzyl)benzimidazol-2-yl]-3,3-dimethybutanoic acid], the inhibition at 10 µM came out at 100%, the inhibition at 0.1 µM was 89% and the Ki came out at 31 nM.
The corresponding values for `CC(C)(CC(=O)O)Cc1nc2ccccc2n1Cc1ccc(Br)cc1` [Example 69, 4-[1-(4 Bromobenzyl)benzimidazol-2-yl]-3,3-dimethylbutanoic acid] are 96%, 86% and 15.8 nM.
As to `CC(C)(CC(=O)O)Cc1nc2cc(Cl)c(Cl)cc2n1Cc1ccc(Cl)cc1` [Example 70, 4-[1-(4-Chlorobenzyl)-5,6-dichlorobenzimidazol-2-yl]-3,3-dimethylbutanoic acid], the inhibition at 10 µM stood at 100% and the inhibition at 0.1 µM amounted to 14%.
Taken in the same sequence, the figures for `CC(C)(CC(=O)O)Cc1nc2ccccc2n1Cc1cccc(C(F)(F)F)c1` [Example 71, 4-[1-(3-Trifluoromethylbenzyl)benzimidazol-2-yl]-3,3-dimethylbutanoic acid] were 100% and 49%.
On to `O=C(O)CC1(Cc2nc3cc(F)ccc3n2Cc2ccc(Cl)cc2)CCCC1` [Example 72, [10[1-(4-Chlorobenzyl)-5-fluorobenzimidazol-2-yl]-methylcyclopent-1 yl]acetic acid], for which the inhibition at 10 µM worked out at 100%, the inhibition at 0.1 µM came out at 71% and the Ki was 42.3 nM.
The corresponding values for `O=C(O)CC1(Cc2nc3cc(F)ccc3n2Cc2ccc(Cl)cc2)CCCCC1` [Example 73, [1-[1-(4-Chlorobenzyl)-5-fluorobenzimidazol-2-yl]methylcyclohex-1-yl]aceticacid] are 98%, 0% and 807 nM.
Taken in the same sequence, the figures for `CC(C)(CC(=O)O)Cc1nc2cc(F)ccc2n1Cc1ccc(Cl)cc1` [Example 74, 4-[1-(4-Chlorobenzyl)-5-fluorobenzimidazol-2-yl]-3,3-dimethylbutanoic acid] were 100%, 94% and 6.3 nM.
As for `CCC(C)(CC(=O)O)Cc1nc2ccccc2n1Cc1ccc(Cl)cc1` (stereo not drawn) [Example 75, 4-[1-(4-Chlorobenzyl)benzimidazol-2-yl]-3-methyl-3-ethylbutanoic acid], the inhibition at 10 µM was found to be 100% and the inhibition at 0.1 µM was 57%.
Regarding `CC(C)(CC(=O)O)Cc1nc2ccccc2n1Cc1ccc(Br)cc1F` [Example 76, 4-[1-(2-Fluoro-4-bromobenzyl)benzimidazol-2-yl]-3,3-dimethylbutanoic acid], the inhibition at 10 µM is 99%, the inhibition at 0.1 µM was 88% and the Ki was found to be 11.4 nM.
The corresponding values for `CC(C)(CC(=O)O)Cc1nc2ccccc2n1Cc1ccc(Cl)cc1` [Example 77, 4-[1-(4-Chlorobenzyl)benzimidazol-2-yl]-3,3-dimethylbutanoic acid] are 100%, 85% and 31 nM.
For `COc1ccc2c(c1)nc(CC(C)(C)CC(=O)O)n2Cc1ccc(Cl)cc1` [Example 78, 4-[1-(4-Chlorobenzyl)-5-methoxybenzimidazol-2-yl]-3,3-dimethylbutanoic acid], the inhibition at 10 µM amounted to 100% and the inhibition at 0.1 µM is 44%.
Regarding `CC(C)(CC(=O)O)Cc1nc2cc(Cl)ccc2n1Cc1ccc(Cl)cc1` [Example 79, 4-[1 (4-Chlorobenzyl)-5-chlorobenzimidazol-2-yl]-3,3-dimethylbutanoic acid], the inhibition at 10 µM was 99%, the inhibition at 0.1 µM amounted to 74% and the Ki stood at 23.2 nM.
As to `CC(C)(CC(=O)O)Cc1nc2cc(F)ccc2n1Cc1ccc(Cl)c(Cl)c1` [Example 80, 4-[1-(3,4-Dichlorobenzyl)-5-fluorobenzimidazol-2-yl]-3,3-dimethylbutanoic acid], the inhibition at 10 µM was 92%, the inhibition at 0.1 µM came to 89% and the Ki came to 6.02 nM.
Taken in the same sequence, the figures for `CC(C)(CC(=O)O)Cc1nc2ccccc2n1Cc1ccc([N+](=O)[O-])cc1` [Example 81, 4-[1-(4-Nitrobenzyl)benzimidazol-2-yl]-3,3-dimethylbutanoic acid] were 100%, 83% and 60.1 nM.
For `CCC(CC)(CC(=O)O)Cc1nc2ccccc2n1Cc1ccc(Cl)cc1` [Example 82, 4-[1-(4-Chlorobenzyl)benzimidazol-2-yl]-3,3-diethylbutanoic acid], the inhibition at 10 µM amounted to 97% and the inhibition at 0.1 µM is 35%.
The corresponding values for `CC(CC(=O)O)Cc1nc2ccccc2n1Cc1ccc(Cl)cc1` (stereo not drawn) [Example 83, 4-[1-(4-Chlorobenzyl)benzimidazol-2-yl]-3-methylbutanoic acid] are 100% and 10%.
Turning to `CC(C)(CC(=O)O)Cc1nc2ccccc2n1Cc1ccc2ccccc2c1` [Example 84, 4-[1-(Naphth-2-ylmethyl)benzimidazol-2-yl]-3,3-dimethylbutanoic acid], the inhibition at 10 µM worked out at 98% and the inhibition at 0.1 µM was determined as 85%.
The corresponding values for `CC(C)(CC(N)=O)Cc1nc2ccccc2n1Cc1ccc(Cl)cc1` [Example 85, 4-[1-(4-Chlorobenzyl)benzimidazol-2-yl]-3,3-dimethylbutanamide] are 90% and 7%.
Turning to `CC(C)(CC(=O)O)Cc1nc2ccccc2n1Cc1ccc(O)cc1` [Example 87, 4-[1-(4-Hydroxybenzyl)benzimidazol-2-yl]-3,3-dimethylbutanoic acid], the inhibition at 10 µM came to 96% and the inhibition at 0.1 µM amounted to 50%.
Turning to `CC(C)(CC(=O)O)Cc1nc2cc(Cl)cnc2n1Cc1ccc(Cl)cc1` [Example 92], the inhibition at 10 µM was determined as 100%, the inhibition at 0.1 µM stood at 97% and the Ki worked out at 12.5 nM.
As for `CSc1ccc(Cn2c(CC(C)(C)CC(=O)O)nc3cc(F)ccc32)cc1` [Example 96, 4-[1-(4-Methylthiobenzyl)-5-fluorobenzimidazol-2-yl]-3,3-dimethylbutanoic acid], the inhibition at 10 µM was 100%, the inhibition at 0.1 µM stood at 100% and the Ki amounted to 5 nM.

The values are drawn from patent US5128359A, “Benzimidazole and azabenzimidazole derivatives which are thromboxane receptor antagonists, their methods of preparation” (Laboratoires UPSA, priority 1990, dated 1992).
